Experimental data as given in US7740867B2, “Method for identification of virulence determinants” (priority 2000, dated 2010).

Tests used:
[1] = system: M. paratuberculosis strain K-10; assay: Susceptibility of growing and non-growing M. paratuberculosis in broth culture to antimicrobial agents; format: cell-based, Mycobacterium paratuberculosis
Protocol: Antimicrobial agents (antibiotics) tested were the fluoroquinolone Bay y 3118, and D-cycloserine. The aminoglycoside amikacin which kills both growing and non-growing M. paratuberculosis, was included as a control. M. paratuberculosis strain K-10 was grown in complete Middlebrook 7H9 medium containing mycobactin J as described above to an optical density (OD600) of 0.3 to 0.4. For non growing conditions, cells (200 ml) were harvested at room temperature, washed in MSS (Middlebrook 7H9 salt solution: 1.0 g/L KH2PO4, 0.05 g/L MgSO4, NH4SO4, 2.5 g/L Na2HPO4, 0.0005 g/L CaCl2, 0.001 g/L ZnSO4, and 0.001 g/L CuSO4), and resuspended in MSS as a single-cell suspension (Williams et al., J. Clin. Microbiol., 37:304-309, 1999). Aliquots (10 ml at a cell density of 2×10^8 CFU/mL) were placed in sterile tissue culture flasks, and antibiotics were added at the following final concentrations Bay y 3118: 0.075 μg/mL (5×MIC) and 0.3 μg/mL (20×MIC); D-cyloserine: 125 μg/mL (5×MIC) and 500 μg/mL (20×MIC); amikacin: 10 μg/mL (5×MIC), and 40 μg/mL (20×MC). These cultures and a control without antibiotics (0×) were incubated at 37° C. and appropriate dilutions were plated in triplicate onto complete Middlebrook 7H9 medium at various time points. […] For growing conditions, cells were treated as described except that the growth control (0×) was diluted 1:10 and all cells were washed and resuspended in complete medium instead of MSS. The cells were also inoculated into MSS (no-growth control).

[2] = system: M. paratuberculosis strain K-10; assay: Minimal inhibitory concentration (MIC) determination; format: cell-based, Mycobacterium paratuberculosis
Source text: The exact amount of the antimicrobial used will vary with the particular substance and organism in question. In general, the concentration of the antimicrobial should exceed the approximate minimal inhibitory concentration (MIC) for the particular organism being studied. Determination of MIC is routine in the art and can be accomplished by the skilled technician without undue experimentation. […] In another embodiment, the concentration of Bay y 3118 is 5× the MIC. […] In yet another embodiment, the concentration of D-cycloserine is 5× the MIC.

[3] = system: Mycobacterium avium within human macrophages; conditions: reported by Bermudez et al., 1999; cited from earlier work
[4] = 5× the MIC, MSS salt solution (non growing conditions), 37° C., FIG. 3
[5] = 5× the MIC, complete Middlebrook 7H9 medium (growing conditions), 37° C., FIG. 3

| SMILES | susceptibility of bacteria in stasis compared with growing bacteria ([1]; concentration not given (5× and 20× MIC tested)) | effect on growing bacteria ([1]; concentration not given (5× and 20× MIC tested), growing conditions) | effect on non growing bacteria ([1]; concentration not given (5× and 20× MIC tested), non growing conditions) | MIC [2] | effect on non growing bacteria [1, 4] | effect on growing bacteria [1, 5] | effect on non growing bacteria ([1]; 20× the MIC, MSS salt solution (non growing conditions), 37° C., FIG. 3) | effect on growing bacteria ([1]; 20× the MIC, complete Middlebrook 7H9 medium (growing conditions), 37° C., FIG. 3) | killing of growing versus non-growing Mycobacterium avium within human macrophages [3] |
| --- | --- | --- | --- | --- | --- | --- | --- | --- | --- |
| NCC[C@H](O)C(=O)N[C@@H]1C[C@H](N)[C@@H](O[C@H]2O[C@H](CN)[C@@H](O)[C@H](O)[C@H]2O)[C@H](O)[C@H]1O[C@H]1O[C@H](CO)[C@@H](O)[C@H](N)[C@H]1O [Amikcin, amikacin] | particularly more susceptible | bactericidal | bactericidal |  |  |  |  |  |  |
| N[C@@H]1CONC1=O [D-cycloserine] |  |  |  | approximately 25 μg/mL | moderate bactericidal effect | moderate bactericidal effect | moderate bactericidal effect | moderate bactericidal effect |  |
| Cl.O=C(O)c1cn(C2CC2)c2c(Cl)c(N3C[C@@H]4CCCN[C@@H]4C3)c(F)cc2c1=O [Bay y 3118] |  |  |  | approximately 0.015 μg/mL | does not kill non growing bacteria | has a bactericidal action on growing bacteria |  |  | kill growing but not non-growing |
